Data published in PubChem BioAssay AID540268 (Broad Institute, 2011).
The source made the active and inactive calls. No rule for the calls is given here.

Assay: reduced viability of parasite-Hsp90 expressing yeast – ATP luminescence, 48 h, cherry-picked samples, anti-malarial Hsp90 inhibitor project, dose response (AID 540268);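 as to activity change, negative = inhibition: 0% = neutral control wells and -100% = positive control wells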
Settings: yeast expressing the parasite Hsp90, ATP luminescence; for activity change, negative = inhibition: at 26 µM (top of the series)

Structure (SMILES) | AC50 | activity change, negative = inhibition
CN(C)c1ccc(/C=C/c2ccc3c4ccccc4ccc3[n+]2-c2ccccc2)cc1 | 3.47 µM | 
CC(C)C1Nc2c(O)cc(Cl)c([N+](=O)[O-])c2C2C=CCC21 (centres undefined) | 6.63 µM | 
O=C1Nc2ccc(Br)cc2/C1=C/C(=O)c1ccc2c(c1)OCO2 | 2.63 µM | 
CC(C)=CCc1c(O)ccc(C2COc3c(CC=C(C)C)c(O)cc(O)c3C2=O)c1O (centres undefined) |  | -110% (inactive)
Oc1c(CN2CCN(c3ccccc3)CC2)cc(Br)c2cccnc12 | 7.92 µM | 
CCCCCCC(Cl)(Cn1ccnc1)c1ccccc1 (centres undefined) | 8.41 µM | 
CC(=NNc1nc2ccccc2s1)c1ncccn1 | 2.36 µM | 
COC[C@H]1OC(=O)c2coc3c2[C@@]1(C)C1=C(C3=O)[C@@H]2CCC(=O)[C@@]2(C)C[C@H]1OC(C)=O | 0.215 µM | 
O=C(c1ccccc1)c1cc(Cl)ccc1N1C(=O)C=CC1=O | 0.432 µM | 
CCCCCCCCCCOC(=O)Cn1c(COc2ccc(OC)cc2)[n+](C)c2ccccc21 | 24.4 µM | 
Nc1c(C(=O)Nc2ccc3c(c2)OCCO3)nnn1Cc1ccccc1Cl | 5.48 µM | 
COc1cccc(/C=N/Nc2ncnc3scc(-c4ccccc4)c23)c1O | 15.3 µM | 
Oc1ccc(N=Nc2nc(-c3ccccc3)c(-c3ccccc3)[nH]2)cc1 | 6.13 µM | 
Clc1ccc2[nH]c3c(c2c1)CCc1cn[nH]c1-3 | 8.79 µM | 
O=[N+]([O-])c1ccc(S(=O)Cc2ccccc2)c([N+](=O)[O-])c1 (centres undefined) | 2.55 µM | 
O=[N+]([O-])c1ccc(N2N=C(c3ccccc3)CC2c2ccccc2O)cc1 (centres undefined) | 3.91 µM | 
COc1ccc(NC(=O)C2CCCN2S(=O)(=O)c2cccc3cccnc23)c(OC)c1 (centres undefined) | 1.31 µM | 
CC1=C(C(=O)OCc2ccccc2)C(/C=C/c2ccccc2)NC(=S)N1 (centres undefined) | < 0.195 µM | 
CCN(C(=O)C1CCCN(c2nc(-c3ccc(OC)cc3)no2)C1)c1ccc(OC)cc1 (centres undefined) | 4.85 µM | 
CCCCCCC(=O)N(O)C1CC(=O)N(c2ccc(Cl)cc2)C1=O (centres undefined) | 1.65 µM | 
CC(C)(C)c1nn(-c2ccccc2)c2[nH]c(=O)c(C=O)cc12 | 1.31 µM | 
Cc1ccc(C(C[N+](=O)[O-])Sc2ccc(N)cc2)cc1 (centres undefined) | 6.83 µM | 

Structure (SMILES) | AC50 | activity change, negative = inhibition
CCCCCCCCCCC[N+](C)(C)CC/C=C1/c2ccccc2Sc2ccc(Cl)cc21 | 7.99 µM | 
CCC(=O)NC(c1ccc(C)cc1)c1ccc2cccnc2c1O (centres undefined) | 3.48 µM | 
O=[N+]([O-])c1ccc(N=Nc2c(Cl)cc(O)cc2Cl)cc1 | 0.401 µM | 
O=C(NCc1ccc2c(c1)OCO2)c1ccc(Br)cc1 | 4.46 µM | 
CCC(C)(C)c1ccc(OCCCC[n+]2cccc(C)c2C)c(C(C)(C)CC)c1 | 4.06 µM | 
C/C(=N\NC(=O)c1cc2ccccc2cc1O)c1ccccn1 | 8.31 µM | 
Cc1cccc(Nc2nc(N)c([N+](=O)[O-])c(N3CC(C)CC(C)C3)n2)c1 (centres undefined) | 3.22 µM | 
CCCCCCCCCCCCCCCC[n+]1cccc2ccccc21 | 3.05 µM | 
Cc1ccc(/C=C2/NC(=O)N(Cc3ccc(Br)cc3)C2=O)o1 |  | 47.3% (inactive)
COc1cc(C=NO)nc(-c2ccccn2)c1 | 2.32 µM | 
CCN1/C(=C\c2ccc3ccccc3[n+]2CC)Sc2cc(C)ccc21 | 7.9 µM | 
O=C(CSc1ccc(-c2ccccn2)nn1)Nc1ccccc1 |  | -18.1% (inactive)
COC(=O)c1ccc(NC(=O)c2cn(-c3ccccc3)nc2-c2ccncc2)cc1 | 4.08 µM | 
O=C1C(Cl)=C(Oc2ccccc2)C(=O)c2ccccc21 | < 0.195 µM | 
COc1ccc(C(C#N)=C2C=CC(=NO)C=C2)cc1 | 4.56 µM | 
C[C@@]12C(=O)Nc3ccc(F)cc3C(=O)N1[C@H]1c3ccccc3OC[C@@H]1[C@@H]2c1ccccc1 | < 0.195 µM | 
O=[N+]([O-])c1cccc(SSc2cccc([N+](=O)[O-])c2)c1 | 4.62 µM | 
CN1CCN(C(=O)c2cc(COc3c(F)cccc3F)on2)CC1c1ccccc1 (centres undefined) | 0.43 µM | 
Cc1[nH]oc(=O)c1N=Nc1c(Cl)cccc1Cl | 24.9 µM | 
CCCC1COC(Cn2cncn2)(c2ccc(Cl)cc2Cl)O1 (centres undefined) | < 0.195 µM | 
O=C(NN1C(=O)/C(=C\c2ccc(O)c([N+](=O)[O-])c2)SC1=S)c1ccccc1Cl | 5.92 µM | 
CN(O)C(=S)c1ccccc1 | 4.38 µM | 

Structure (SMILES) | AC50 | activity change, negative = inhibition
O=C(/C(=C/O)N=Nc1ccccc1)c1ccc(Cl)cc1 | 6.25 µM | 
O=C1C=CC2(O[C@H](c3ccccc3)[C@@H](c3ccccc3)O2)[C@H](Sc2ccccc2O)C1 | 3.46 µM | 
CCOc1ccccc1N1CCN(C(=O)c2cccc(-c3ccc(O)cc3)c2)CC1 | 5.08 µM | 
CCOc1ccc(N2C(=O)/C(=C\c3ccccc3OC)S(=O)(=O)C2c2cccc([N+](=O)[O-])c2)cc1 (centres undefined) | 21.6 µM | 
O=C1C=CC(=Nc2ccc(F)cc2)O1 | 1.24 µM | 
CC(=NNc1nc2ccccc2o1)c1ncccn1 | 1.33 µM | 
Cc1cccc(NC(=S)NCC23C=CC(O2)C2C(=O)N(c4ccc(Cl)cc4)C(=O)C23)c1 (centres undefined) | 8.4 µM | 
COc1ccc2c(c1)OC[C@H]1[C@H]2N2C(=O)c3cc(C)ccc3NC(=O)[C@@]2(C)[C@H]1c1ccccc1 | 0.988 µM | 
O=[N+]([O-])c1cc(CN2CCN(c3cccc(C(F)(F)F)c3)CC2)c2cccnc2c1O | 4.42 µM | 
COC1CCC(OC2CC(C3(C)CCC4(CC(O)C(C)C(C(C)/C=C(\C)C(=O)C(C)CC(C)C(=O)O)O4)O3)OC3(OC(C4OC(O)(CO)C(C)CC4C)CC3C)C2C)OC1C (centres undefined) | 4.84 µM | 
Cc1ccc(NC(=O)c2ccc(Cl)c(N3C(=O)C=CC3=O)c2)cc1 | 2.38 µM | 
Cc1ccc(C(C[N+](=O)[O-])c2c(N)n(C)c(=O)n(C)c2=O)cc1 (centres undefined) | 3.33 µM | 
CC(=O)Nc1ccc(Nc2cc(C(C)C)nc3c(-c4ccccc4)c(C)nn23)cc1 | 3.68 µM | 
C=C1C(=O)C23CCC4C(C)(C(=O)OC)CCCC4(C)C2CCC1(O)C3 (centres undefined) | 1.54 µM | 
O=C(Nc1nc(-c2ccccc2)c(-c2ccccc2)o1)c1ccc(F)cc1 | 8.21 µM | 
Oc1c(C(Nc2ccccn2)c2cccnc2)cc(Cl)c2cccnc12 (centres undefined) | 8.09 µM | 
COc1ccc(C)cc1N=Nc1ccc(O)c2ncccc12 | 1.18 µM | 
CCc1ccc(S(=O)(=O)N(C(=O)c2ccncc2)c2ccc(OC(=O)c3ccncc3)cc2)cc1 | 1.28 µM | 
O=C1C=CC(=O)N1CCNc1ncc(C(F)(F)F)cc1Cl | 0.674 µM | 
O=C(OCC(=O)C12CC3CC(CC(C3)C1)C2)c1ccc(O)cc1 | 1.06 µM | 
O=C(O)/C=C/c1cn(-c2ccccc2)nc1-c1cc2ccccc2o1 | 16 µM | 
Oc1ccccc1C1=NN(c2ccccc2)C(c2ccccc2)C1 (centres undefined) | 4.3 µM | 

Structure (SMILES) | AC50 | activity change, negative = inhibition
CCCCC(=O)NC(c1ccc(Cl)cc1)c1ccc2cccnc2c1O (centres undefined) | 16.4 µM | 
Oc1ccc(C2=NN(c3ccccc3)C(c3ccc(F)cc3)C2)cc1 (centres undefined) | 3.35 µM | 
Oc1c(C(Nc2nc3ccccc3s2)c2ccco2)ccc2cccnc12 (centres undefined) | 24.8 µM | 
O=C(Nc1nc(-c2ccccn2)cs1)c1ccc(Br)s1 | 2.18 µM | 
CCOC(=O)C1=C(CC)Nc2ccccc2N=C1NC(=O)Nc1ccc(Cl)c(Cl)c1 | 1.43 µM | 
Cc1ccc(N=c2ssnc2Cl)cc1 | 3.28 µM | 
CC1=CC2C(C(O)CC3(C)C2CC(C)C32OCOC23COCO3)C2(C)C/C(=C\O)C(=O)C=C12 (centres undefined) | 3.13 µM | 
COc1ccccc1-c1sc2ccccc2c1-c1ccc(O)cc1 | 3.78 µM | 
COc1ccc(C(=O)O/N=C2\C(=O)N(C)c3ccccc32)cc1 | < 0.195 µM | 
CCCCOc1ccc(C(=O)NNC(=S)NC(=O)CC)cc1 | 4.2 µM | 
CN(c1ccccc1)c1ccc(/C=C/[N+](=O)[O-])cc1 | 5.24 µM | 
O=C1OCC(CO)(CO)N=C1NNc1ccc(Cl)c(Cl)c1 | 2.2 µM | 
COc1ccc2oc(/C=C/N(C)C)c(C(=O)c3ccc(Cl)cc3)c2c1 | 3.78 µM | 
Cc1ccc(C(=O)Sc2cccccc2=O)cc1 | 6.77 µM | 
Clc1ccc(CCC(Cn2ccnc2)Sc2c(Cl)cccc2Cl)cc1 (centres undefined) | < 0.195 µM | 
Cn1ncc2c(Nc3cccc(Cl)c3)nc(Nc3cccc(Cl)c3)nc21 | 2.82 µM | 
Cn1c(SCC(=O)N/N=C/c2ccc([N+](=O)[O-])s2)nnc1-c1ccc(Cl)cc1 | 2.3 µM | 
O=C(Nc1ccccc1N1CCOCC1)c1ccc([N+](=O)[O-])s1 | 8.44 µM | 
CC[C@@H](C)[C@H](NC(=O)OC(C)(C)C)c1nnc(S(=O)(=O)Cc2cc(C)ccc2C)o1 | 5.46 µM | 
O=C(NNc1nc2ccc(Cl)cc2s1)c1cc(-c2cccs2)nc2ccccc12 | 1.49 µM | 
CC(C)(C)c1cc(-c2nc(N)nc(N)n2)c(O)c(C(C)(C)C)c1 | 15.1 µM | 
CC1=CC(C)CC(C)OC(=O)CC(c2ccc(O)cc2)NC(=O)C(Cc2c(Br)[nH]c3ccccc23)N(C)C(=O)C(C)NC(=O)C(C)C1 (centres undefined) | 5.2 µM | 

Structure (SMILES) | AC50 | activity change, negative = inhibition
CCCCCCCCOC(=O)c1cc([N+](=O)[O-])c(Sc2ncnc3nc[nH]c23)c([N+](=O)[O-])c1 | 1.4 µM | 
Cc1cc(C)cc(N2C(=O)C=CC2=O)c1 | < 0.195 µM | 
CCOC(=O)C1=C(Cc2ccc(Cl)cc2)C(=O)c2ccccc2C1=O |  | -104% (inactive)
Cc1ccc(C(=O)ONC(=O)c2ccc(Cl)cc2)cc1[N+](=O)[O-] | 0.387 µM | 
O=[N+]([O-])c1ccc(NC(=S)NCCc2ccc(Cl)cc2)cc1 | 4.25 µM | 
Clc1ccc(COC(Cn2ccnc2)c2ccc(Cl)cc2Cl)cc1 (centres undefined) | < 0.195 µM | 
COc1ccc(OC)c(N2C(=O)NC(=O)/C(=C\c3ccc([N+](=O)[O-])s3)C2=O)c1 | 5.48 µM | 
COc1ccccc1C(=O)NNC(=S)NC(=O)c1cccs1 | 6.92 µM | 
Cc1ccc(S(=O)(=O)N(C(=O)c2ccncc2)c2ccc(OC(=O)c3ccncc3)cc2)c(C)c1 | 3.45 µM | 
CCn1c(CNc2ccc(Cl)cc2)nnc1SCc1ccc(C)cc1 | 8.23 µM | 
CCCCCCCCCCCCCCCC[N+](C)(C)CCl | 4.3 µM | 
O=C(N/N=C\c1c(O)ccc2ccccc12)c1cncc(Br)c1 | 4.28 µM | 
O=S(=O)(/C=C/c1ccccc1)NC1CCCCCC1 | 4.16 µM | 
O=C1Nc2ccc(Br)cc2/C1=C/C(=O)c1ccccc1 | 1.42 µM | 
Cc1cc(C)c(S(=O)(=O)NCC23C=CC(O2)C2C(=O)N(c4ccccc4)C(=O)C23)c(C)c1 (centres undefined) | 3.21 µM | 
Nc1nonc1C(=O)NCCN=Cc1cc(Cc2ccccc2)cc(Br)c1O | 2.3 µM | 
COc1ccccc1NC(=O)COC(=O)c1ccc([N+](=O)[O-])s1 | 3.02 µM | 
Cc1ccccc1CS(=O)(=O)c1nnc([C@H](Cc2ccccc2)NC(=O)OC(C)(C)C)o1 | 17.1 µM | 
Cc1cc2n(n1)C(c1c[nH]c3ccccc13)Nc1ccccc1-2 (centres undefined) | 2.67 µM | 
S=C1Cc2ccccc2N1 | 3.36 µM | 
Cc1ccc(N2C(=O)C3C4C=CC(CNC(=S)N5CCN(c6ccccc6)CC5)(O4)C3C2=O)cc1 (centres undefined) | 6.93 µM | 
